Test results published in US9168247B2, “Beta carboline derivatives useful in the treatment of proliferative disorders” (FACULTES UNIVERSITAIRES NOTRE DAME DE LA PAIX, priority 2010, dated 2015).
Where two headings read alike, the source gives them in different places.

Key:
[1] = system: OE21 oesophageal cancer cells; experiment: MTT test, overall cell growth, OE21; type: cell-based, human; details: Homo sapiens, OE21, 72 hours of incubation
Procedure: (§1) MTT tests were performed in order to rapidly, i.e., within 5 days, measure the effect of the present compounds on the overall cell growth. The test measured the number of metabolically active living cells that were able to transform the yellow product 3-(4,5-dimethylthiazol-2-yl)-2,5-diphenyl tetrazolium bromide (herein referred as MTT) into the blue product formazan dye by mitochondrial reduction. The amount of formazan obtained at the end of the experiment, measured by means of a spectrophotometer, is directly proportional to the number of living cells. Optical density determination thus enabled a quantitative measurement of the effect of the investigated compounds as compared to the control condition (untreated cells) and/or to other reference compounds.
(§2) Five human cancer cell lines set forth in Table 3 were used in the MTT tests. These cancer cell lines cover two histological cancer types including glioma (Hs683, T98G, U373), and oesophageal (OE21, OE33) cancers. The U373 cell line is apoptosis-resistant but autophagy-sensitive.
(§3) To perform the assay, cells were allowed to grow in 96-well micro-wells with a flat bottom with an amount of 100 μl of cell suspension per well with 5,000 to 8,000 cells/well depending on the cell type used. Each cell line was seeded in its appropriate culture medium.
(§4) The detailed experimental procedure was as follows: after a 24-hour period of incubation at 37° C., the culture medium was replaced by 100 μl of fresh medium in which the tested compound was previously dissolved, at the following molar concentrations: 1×10^−8 M, 5×10^−8 M, 1×10^−7 M, 5×10^−7 M, 1×10^−6 M, 5×10^−6 M, 1×10^−5 M, 5×10^−5 M and 1×10^−4 M. Each experiment was performed in sestuplicate (6 times).
(§5) After 72 hours of incubation at 37° C. with (experimental conditions) or without (control condition) the compound to be tested, the medium was replaced by 100 μl MTT dissolved in RPMI (1640 without phenol red) at a concentration of 0.5 or 1 mg/ml. The micro-wells were subsequently incubated during 3 hours and a half at 37° C. and centrifuged at 1300 rpm during 10 minutes. MTT was removed and formazan crystals formed were dissolved in […]. The micro-wells were shaken for 5 minutes and read on a spectrophotometer at wavelengths of 570 nm (maximal formazan absorbance).
(§6) For each experimental condition, the mean optical density was calculated, allowing the determination of the percentage of remaining living cells in comparison to the control.
(§7) The origin of all the cell lines we used, along with their biological characteristics, and the validation procedures of the MTT colorimetric assay as employed here are fully detailed in Van Quaquebeke et al., 2005, J Med Chem 48:849-856; Ingrassia et al., 2009, J Med Chem 52:1100-1114; Mathieu et al., 2009, J Cell Mol Med, Feb. 20, 2009.

U373 glioma cells = experiment: MTT test, overall cell growth, U373; type: cell-based, human; details: Homo sapiens, U373 MG, 72 hours of incubation
Procedure: as §1, §2, §3, §4, §5, §6, §7

[2] = system: human cancer cell lines (U373, T98G, Hs683, OE21, OE33); experiment: MTT test, mean over the cancer cell lines; type: cell-based; details: Homo sapiens
Procedure: as §1, §2, §3, §4, §5, §6, §7

U373 cells = experiment: Cellular imaging (videomicroscopy) of cultured U373 cells: antiproliferative class and global growth ratio; type: cell-based, human; set-up: key to Anti proliferative class / anti-proliferative class-GGR: class I: actually cytostatic for 3 days (<10% of cell death at the 3rd day); class II: cyctostatic but becomes cytotoxic with <10% cell death on the 2nd day, and >20% of cell death on the 3rd day; class III: cytostatic but rapidly becomes cytotoxic with <10% cell death on the 1st day, >20% of cell death on the 2nd day and >50% of cell death on the 3rd day; class IV: cytotoxic (>50% of cell death on the first day); details: for global growth ratio (GGR): GG treated cells/GG control cells, 72 h after drug addition, drug at its IC50 (MTT-test determined); for Anti proliferative class: cellular imaging of cultured U373 cells over three consecutive days
Text: The effects of the di- and tri-substituted beta-carboline derivatives as described herein can also be determined on cell proliferation, migration and morphology by means of a cellular imaging approach (Debeir et al., Cytometry 60:29-40, 2004; Debeir et al., IEEE Trans Med Imaging 24:697-711, 2005) either in, e.g., the human U373-MG glioma cell line, which is apoptosis-resistant but autophagy-sensitive (Lefranc F et al., Neurosurgery 2008) or in, e.g., the human A549 non-small-cell-lung cancer cell line, which is apoptosis-resistant and autophagy-resistant (Mijatovic T et al., Neoplasia 2006, May; 8(5):402-12).
[…] The experiments are conducted in quadruplicates.
The behaviour of the cells, in terms of morphology, growth and death are thus investigated. The effect on the overall growth is measured by counting the number of cells on the first (0 h) and the last image (72 h) of each film. The global growth ratio (GGR) is then deduced by dividing the number of cells on the last image by the number of cells on the first image. The ratio GGRtreated cells/GGRcontrol cells is further calculated thereby providing a value that describes the effect of compounds of the present invention on the overall cell growth.
The methodology is fully described and validated in Debeir et al., 2008, Exp Cell Res 314:2985-2998 and Mathieu et al., 2009, J Cell Mol Med, Feb. 20, 2009.

Hs683 glioma cells = experiment: MTT test, overall cell growth, Hs683; type: cell-based, human; details: Homo sapiens, Hs 683, 72 hours of incubation
Procedure: as §1, §2, §3, §4, §5, §6, §7

[3] = system: OE33 oesophageal cancer cells; experiment: MTT test, overall cell growth, OE33; type: cell-based, human; details: Homo sapiens, OE33, 72 hours of incubation
Procedure: as §1, §2, §3, §4, §5, §6, §7

T98G glioma cells = experiment: MTT test, overall cell growth, T98G; type: cell-based, human; details: Homo sapiens, T98G, 72 hours of incubation
Procedure: as §1, §2, §3, §4, §5, §6, §7

[4] = mean over the cancer cell lines, MTT test, read-out: IC50 Mean ± SEM
[5] = Glioma cell, MTT assay, submicromolar range, e.g. as low as, read-out: mean anti-proliferative effect on the glioma cell lines

SMILES	IC50 [1]	IC50 (U373 glioma cells)	IC50 [2, 4]	global growth ratio (GGR) (U373 cells)	Anti proliferative class (U373 cells)	IC50 (Hs683 glioma cells)	IC50 [3]	IC50 (T98G glioma cells)	IC50 [2, 5]	IC50 ([2]; Table 4, mean over cell lines, read-out: IC50 μM growth inhibition (MTT test))
Cc1c2c(cc[n+]1Cc1ccccc1F)c1ccc(OCc3cccc(F)c3)cc1n2Cc1cccc(F)c1.[Br-] [CV19, 1-methyl-2-(2-fluorobenzyl)-7-(3-fluorobenzyl)oxy-9-(3-fluorobenzyl)-β-carbolin-2-ium bromide]	1.4 ± 0.3 µM	0.6 ± 0.2 µM	1.6 ± 0.4 µM	0.2	I (class I: actually cytostatic for 3 days (<10% of cell death at the 3rd day))	2.2 ± 0.2 µM	3 ± 0.2 µM	0.7 ± 0.2 µM		
Cc1c2c(cc[n+]1Cc1ccc(F)cc1)c1ccc(OCc3cccc(F)c3)cc1n2Cc1cccc(F)c1.[Br-] [CV22, 1-methyl-2-(4-fluorobenzyl)-7-(3-fluorobenzyl)oxy-9-(3-fluorobenzyl)-β-carbolin-2-ium bromide]	2.9 ± 0.1 µM	0.9 ± 0.1 µM	2.7 ± 0.6 µM	0.5	I (class I: actually cytostatic for 3 days (<10% of cell death at the 3rd day))	4.5 ± 0.4 µM	3.4 ± 0.1 µM	1.9 ± 0.3 µM		
Cc1c2c(cc[n+]1Cc1ccccc1)c1ccc(OCc3ccc(F)cc3)cc1n2Cc1ccc(F)cc1.[Br-] [CV23, 1-methyl-2-benzyl-7-(4-fluorobenzyl)oxy-9-(4-fluorobenzyl)-β-carbolin-2-ium bromide]	0.5 ± 0.09 µM	0.43 ± 0.07 µM	0.8 ± 0.2 µM	0.3	I (class I: actually cytostatic for 3 days (<10% of cell death at the 3rd day))	0.9 ± 0.1 µM	1.4 ± 0.1 µM	0.4 ± 0.04 µM	0.34 to 0.8 µM	
Cc1c2c(cc[n+]1Cc1ccccc1)c1ccc(OCC3CCCCC3)cc1n2CC1CCCCC1.[Br-] [CV24, 1-methyl-2-benzyl-7-cyclohexylmethyloxy-9-cyclohexylmethyl-β-carbolin-2-ium bromide]	0.42 ± 0.008 µM	0.37 ± 0.02 µM	0.34 ± 0.05 µM	0.3	I (class I: actually cytostatic for 3 days (<10% of cell death at the 3rd day))	0.38 ± 0.009 µM	0.37 ± 0.01 µM	0.16 ± 0.03 µM	0.34 to 0.8 µM	0.34 µM
Cc1c2c(cc[n+]1Cc1ccccc1F)c1ccc(OCC3CCCCC3)cc1n2CC1CCCCC1.[Br-] [CV26, 1-methyl-2-(2-fluorobenzyl)-7-cyclohexylmethyloxy-9-cyclohexylmethyl-β-carbolin-2-ium bromide]	0.35 ± 0.01 µM	1.42 ± 0.08 µM	0.5 ± 0.2 µM	0.2	I (class I: actually cytostatic for 3 days (<10% of cell death at the 3rd day))	0.25 ± 0.02 µM	0.35 ± 0.02 µM	0.07 ± 0.008 µM	0.34 to 0.8 µM	
Cc1nccc2c3ccc(O)cc3n(Cc3ccccc3)c12 [CV27, 1-methyl-7-hydroxy-9-benzyl-β-carboline]	35 ± 2 µM	80 ± 2 µM	62 ± 11 µM	0.2	II	79 ± 4 µM	35 ± 2 µM	81 ± 11 µM		
Cc1c2c(cc[n+]1Cc1ccc(F)cc1)c1ccc(OCc3ccc(F)cc3)cc1n2Cc1ccc(F)cc1.[Br-] [CV29, 1-methyl-2-(4-fluorobenzyl)-7-(4-fluorobenzyl)oxy-9-(4-fluorobenzyl)-β-carbolin-2-ium bromide]	3.7 ± 0.2 µM	2.9 ± 0.1 µM	7 ± 3 µM	0.1	IV (class IV: cytotoxic (>50% of cell death on the first day))	13 ± 1 µM	3.1 ± 0.3 µM	14 ± 2 µM		
Cc1c2c(cc[n+]1Cc1ccc(F)cc1)c1ccc(OCC3CCCCC3)cc1n2CC1CCCCC1.[Br-] [CV30, 1-methyl-2-(4-fluorobenzyl)-7-cyclohexylmethyloxy-9-cyclohexylmethyl-β-carbolin-2-ium bromide]	1.4 ± 0.2 µM	0.04 ± 0.01 µM	1.6 ± 0.4 µM	0.8	I (class I: actually cytostatic for 3 days (<10% of cell death at the 3rd day))	3.1 ± 0.3 µM	1 ± 0.1 µM	2 ± 0.6 µM		
CCCn1c2cc(OCc3ccccc3)ccc2c2ccnc(C)c21 [CV33, 1-methyl-7-benzyloxy-9-propyl-β-carboline]	23 ± 2 µM	26 ± 1 µM	21 ± 4 µM	0.3	III	13 ± 1 µM	9 ± 1 µM	34 ± 1 µM		
CCCn1c2cc(OCc3ccccc3)ccc2c2cc[n+](Cc3ccccc3)c(C)c21.[Br-] [CV34, 1-methyl-2-benzyl-7-benzyloxy-9-propyl-β-carbolin-2-ium bromide]	0.57 ± 0.08 µM	0.41 ± 0.03 µM	1.1 ± 0.4 µM	0.3	III	2.6 ± 0.2 µM	0.3 ± 0.05 µM	1.7 ± 0.5 µM		
CCCn1c2cc(OCc3ccccc3)ccc2c2cc[n+](Cc3ccccc3F)c(C)c21.[Br-] [CV35, 1-methyl-2-(2-fluorobenzyl)-7-benzyloxy-9-propyl-β-carbolin-2-ium bromide]	0.42 ± 0.02 µM	0.39 ± 0.01 µM	0.7 ± 0.3 µM	0.4	I (class I: actually cytostatic for 3 days (<10% of cell death at the 3rd day))	0.45 ± 0.02 µM	0.25 ± 0.02 µM	1.8 ± 0.3 µM		
CCCn1c2cc(OCc3ccccc3)ccc2c2cc[n+](Cc3ccc(F)cc3)c(C)c21.[Br-] [CV36, 1-methyl-2-(4-fluorobenzyl)-7-benzyloxy-9-propyl-β-carbolin-2-ium bromide]	1.9 ± 0.3 µM	0.88 ± 0.06 µM	2.5 ± 0.9 µM	0.1	IV (class IV: cytotoxic (>50% of cell death on the first day))	3.1 ± 0.6 µM	1 ± 0.1 µM	5.7 ± 0.2 µM		
Cc1nccc2c1[nH]c1cc(OCc3ccccc3)ccc12 [JR79, 1-methyl-7-benzyloxy-β-carboline]	21 ± 1 µM	9.3 ± 0.2 µM	14 ± 3 µM	0.2	III	17 ± 2 µM	4.1 ± 0.6 µM	17 ± 3 µM		
